Source: patent publication US11000033B2, “Ketone or oxime compound, and herbicide” (NISSAN CHEMICAL CORPORATION, priority 2014, dated 2021)

Tests used:
Type in all cases: in vivo
[1] = system: Echinochloa oryzacola Vasing.; assay: Test Example 1: herbicidal activity, application before weed generation in submerged conditions (symbol A); conditions: application herbicide amount 320 g/ha
Method in brief: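 Compound emulsion was diluted to a set herbicide amount and applied to the water surface on the sowing day, into submerged (4 cm) alluvial-soil pots sown with mixed weed seeds and transplanted 2.5-leaf rice. Pots were held in a 25–30 °C greenhouse, and weeds were scored 0–5 by herbicidal ratio after 3 weeks.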

transplanted rice plant = assay: Test Example 1: effect on crop, application before weed generation in submerged conditions (symbol a); conditions: application herbicide amount 320 g/ha
Method in brief: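 Alluvial soil pots flooded to 4 cm water, sown with Echinochloa oryzacola, Scirpus juncoides and Monochoria vaginalis, then transplanted with 2.5 leaf stage rice seedlings; pre-emergence application. Greenhouse 25° C. to 30° C.; scored 0–5 by herbicidal ratio 3 weeks after application.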

[2] = system: directly sowed rice plant; assay: Test Example 3: effect on crop by foliage application, Wagner pot (symbol b); conditions: application herbicide amount 320 g/ha
Method in brief: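 Steps: fill a 1/10000-are Wagner pot with alluvial soil; add water and mix to submerge at 0.1–0.5 cm depth; sow rice plus Echinochloa crus-galli var. crus-galli, Leptochloa chinensis and Cyperus difformis; grow in a 25–30 °C greenhouse.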

[3] = system: Echinochloa crus-galli var. crus-galli; assay: Test Example 4: herbicidal effect by soil treatment (symbol H); conditions: 320 g/ha
Method in brief: (§1)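 Seeds were sown in sterilized diluvial soil, covered with about 1.5 cm of soil, and the soil surface was sprayed with a water-diluted emulsion of the compound at a predetermined rate. Plants grew in a greenhouse at 25° C. to 30° C.; effects were scored visually 3 weeks after application.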

Apera spica-venti = assay: Test Example 4: herbicidal effect by soil treatment (symbol L); conditions: 320 g/ha
Method in brief: as §1

Abutilon theophrasti [4] = assay: Test Example 4: herbicidal effect by soil treatment (symbol M); conditions: 320 g/ha
Method in brief: as §1

Chenopodium album = assay: Test Example 4: herbicidal effect by soil treatment (symbol O); conditions: 320 g/ha
Method in brief: as §1

Galium spurium = assay: Test Example 4: herbicidal effect by soil treatment (symbol Q); conditions: 320 g/ha
Method in brief: as §1

soybean [5] = assay: Test Example 4: effect on crop by soil treatment (symbol d); conditions: 320 g/ha
Method in brief: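 Greenhouse culture at 25° C. to 30° C. followed sowing of seed in spots on sterilized diluvial soil with a soil cover close to 1.5 cm thick.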

Digitaria ciliaris = assay: Test Example 5: herbicidal effect by foliage application, plastic box (symbol F); conditions: 320 g/ha, 3 weeks after application
Method in brief: (§2)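 Sowing in sterilized diluvial soil, 14 days' greenhouse growth at 25° C. to 30° C., then uniform small-sprayer foliar application of aqueous emulsion dilution; plants scored three weeks afterwards.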

Avena fatua = assay: Test Example 5: herbicidal effect by foliage application, plastic box (symbol I); conditions: 320 g/ha, 3 weeks after application
Method in brief: as §2

Abutilon theophrasti [6] = assay: Test Example 5: herbicidal effect by foliage application, plastic box (symbol M); conditions: 320 g/ha, 3 weeks after application
Method in brief: as §2

Veronica persica = assay: Test Example 5: herbicidal effect by foliage application, plastic box (symbol R); conditions: 320 g/ha, 3 weeks after application
Method in brief: as §2

corn = assay: Test Example 5: effect on crop by foliage application, plastic box (symbol c); conditions: 320 g/ha, 3 weeks after application
Method in brief: (§3)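 Soil: sterilized diluvial. Container: plastic box, 21 × 13 cm, 7 cm deep. Sowing: spot-like, ~1.5 cm cover. Growth: greenhouse, 25° C. to 30° C.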

soybean [7] = assay: Test Example 5: effect on crop by foliage application, plastic box (symbol d); conditions: 320 g/ha, 3 weeks after application
Method in brief: as §3

SMILES | Herbicidal effect grade, A: Echinochloa oryzacola Vasing. [1] | Effect grade on crop, a: transplanted rice plant (transplanted rice plant) | effect on crop b (directly sowed rice plant), grade 0-5 [2] | H: Echinochloa crus-galli var. crus-galli, herbicidal effect grade [3] | L: Apera spica-venti, herbicidal effect grade (Apera spica-venti) | M: Abutilon theophrasti, herbicidal effect grade (Abutilon theophrasti [4]) | O: Chenopodium album, herbicidal effect grade (Chenopodium album) | Q: Galium spurium, herbicidal effect grade (Galium spurium) | d: soybean, effect grade on crop (soybean [5]) | F: Digitaria ciliaris, herbicidal effect (criteria 0-5) (Digitaria ciliaris) | I: Avena fatua, herbicidal effect (criteria 0-5) (Avena fatua) | M: Abutilon theophrasti, herbicidal effect (criteria 0-5) (Abutilon theophrasti [6]) | R: Veronica persica, herbicidal effect (criteria 0-5) (Veronica persica) | c: corn, effect on crop (criteria 0-5) (corn) | d: soybean, effect on crop (criteria 0-5) (soybean [7])
CC(CC1CC(O)=C(c2c(C)cc(C)cc2C)C1=O)=NOCc1cccc(C(F)(F)F)c1 (stereo not drawn) [1-117] | 5 (Herbicidal ratio of 90% or more (almost completely withered)) | 5 (Herbicidal ratio of 90% or more (almost completely withered)) | 5 (Herbicidal ratio of 90% or more (almost completely withered)) | 5 (Herbicidal ratio of 90% or more (almost completely withered)) | 5 (Herbicidal ratio of 90% or more (almost completely withered)) | 0 (Herbicidal ratio of 5% or lower (almost no effect)) | 0 (Herbicidal ratio of 5% or lower (almost no effect)) | 0 (Herbicidal ratio of 5% or lower (almost no effect)) | 0 (Herbicidal ratio of 5% or lower (almost no effect)) | 5 (Herbicidal ratio of 90% or more (almost completely withered)) | 5 (Herbicidal ratio of 90% or more (almost completely withered)) | 1 (Herbicidal ratio of 5% or higher and lower than 20%) | 3 (Herbicidal ratio of 40% or higher and lower than 70%) | 3 (Herbicidal ratio of 40% or higher and lower than 70%) | 0 (Herbicidal ratio of 5% or lower (almost no effect))
COC(=O)c1ccc(CON=C(C)CC2CC(O)=C(c3c(C)cc(C)cc3C)C2=O)cc1 (stereo not drawn) [1-118] | 5 (Herbicidal ratio of 90% or more (almost completely withered)) | 4 (Herbicidal ratio of 70% or higher and lower than 90%) | 5 (Herbicidal ratio of 90% or more (almost completely withered)) | 4 (Herbicidal ratio of 70% or higher and lower than 90%) | 3 (Herbicidal ratio of 40% or higher and lower than 70%) | 0 (Herbicidal ratio of 5% or lower (almost no effect)) | 0 (Herbicidal ratio of 5% or lower (almost no effect)) | 0 (Herbicidal ratio of 5% or lower (almost no effect)) | 0 (Herbicidal ratio of 5% or lower (almost no effect)) | 0 (Herbicidal ratio of 5% or lower (almost no effect)) | 3 (Herbicidal ratio of 40% or higher and lower than 70%) | 0 (Herbicidal ratio of 5% or lower (almost no effect)) | 3 (Herbicidal ratio of 40% or higher and lower than 70%) | 4 (Herbicidal ratio of 70% or higher and lower than 90%) | 0 (Herbicidal ratio of 5% or lower (almost no effect))
CC(CC1CC(O)=C(c2c(C)cc(C)cc2C)C1=O)=NOCc1ccccc1[N+](=O)[O-] (stereo not drawn) [1-119] | 1 (Herbicidal ratio of 5% or higher and lower than 20%) | 3 (Herbicidal ratio of 40% or higher and lower than 70%) | 5 (Herbicidal ratio of 90% or more (almost completely withered)) | 5 (Herbicidal ratio of 90% or more (almost completely withered)) | 5 (Herbicidal ratio of 90% or more (almost completely withered)) | 0 (Herbicidal ratio of 5% or lower (almost no effect)) | 0 (Herbicidal ratio of 5% or lower (almost no effect)) | 0 (Herbicidal ratio of 5% or lower (almost no effect)) | 0 (Herbicidal ratio of 5% or lower (almost no effect)) | 5 (Herbicidal ratio of 90% or more (almost completely withered)) | 5 (Herbicidal ratio of 90% or more (almost completely withered)) | 1 (Herbicidal ratio of 5% or higher and lower than 20%) | 3 (Herbicidal ratio of 40% or higher and lower than 70%) | 2 (Herbicidal ratio of 20% or higher and lower than 40%) | 0 (Herbicidal ratio of 5% or lower (almost no effect))
CC(CC1CC(O)=C(c2c(C)cc(C)cc2C)C1=O)=NOCC(C)Cl (stereo not drawn) [1-121] | 5 (Herbicidal ratio of 90% or more (almost completely withered)) | 5 (Herbicidal ratio of 90% or more (almost completely withered)) | 5 (Herbicidal ratio of 90% or more (almost completely withered)) | 5 (Herbicidal ratio of 90% or more (almost completely withered)) | 5 (Herbicidal ratio of 90% or more (almost completely withered)) | 0 (Herbicidal ratio of 5% or lower (almost no effect)) | 0 (Herbicidal ratio of 5% or lower (almost no effect)) | 0 (Herbicidal ratio of 5% or lower (almost no effect)) | 0 (Herbicidal ratio of 5% or lower (almost no effect)) | 5 (Herbicidal ratio of 90% or more (almost completely withered)) | 5 (Herbicidal ratio of 90% or more (almost completely withered)) | 3 (Herbicidal ratio of 40% or higher and lower than 70%) | 3 (Herbicidal ratio of 40% or higher and lower than 70%) | 5 (Herbicidal ratio of 90% or more (almost completely withered)) | 2 (Herbicidal ratio of 20% or higher and lower than 40%)
CON=C(C)CC1CC(OS(=O)(=O)N(C)C)=C(c2c(C)cc(C)cc2C)C1=O (stereo not drawn) [1-122] | 5 (Herbicidal ratio of 90% or more (almost completely withered)) | 5 (Herbicidal ratio of 90% or more (almost completely withered)) | 5 (Herbicidal ratio of 90% or more (almost completely withered)) | 4 (Herbicidal ratio of 70% or higher and lower than 90%) | 1 (Herbicidal ratio of 5% or higher and lower than 20%) | 0 (Herbicidal ratio of 5% or lower (almost no effect)) | 0 (Herbicidal ratio of 5% or lower (almost no effect)) | 0 (Herbicidal ratio of 5% or lower (almost no effect)) | 0 (Herbicidal ratio of 5% or lower (almost no effect)) | 4 (Herbicidal ratio of 70% or higher and lower than 90%) | 5 (Herbicidal ratio of 90% or more (almost completely withered)) | 4 (Herbicidal ratio of 70% or higher and lower than 90%) | 0 (Herbicidal ratio of 5% or lower (almost no effect)) | 5 (Herbicidal ratio of 90% or more (almost completely withered)) | 4 (Herbicidal ratio of 70% or higher and lower than 90%)
